US20070167492A1, “Molluscicidal agents” (priority 2003, published 2007)

What was measured:
[1] = test system: Winter wheat (Kampa race) seeds; assay: Seed germination test of treated winter wheat seeds (rolled in paper); assay type: in vivo; conditions: 3x50 seeds, 6 days at 22° C.
Description: (§1) Winter wheat (Kampa race; thousand grain weight of 51 grams) was used in an experiment to test the efficacy of the compositions of the present inventions in relation to known molluscicidal compounds. The seeds were disinfected for soil and germ moulds with 2 ml of Beret Gold (comprising 25 g/l of the fungicide fludioxonil) per kg of seed.
(§2) Sepiret® was added to all dry disinfections, and is the coating that was added to all agents of which the formulation was not suitable for coating.
Table 2 provides an overview of the amounts of diluent water and Sepiret® used for treating the wheat seeds. Table 2 further provides the quality of the coating and the percentages of germinating seeds in a seed germination test. In this test, the percentage of germination of 3×50 seeds, rolled in paper, was determined after 6 days at 22° C. (continuously) and a 16 hours light regime.

[2] = test system: Deroceras reticulatum (grey field slug); assay: Example 1: pot test, treated winter wheat seed with 5 adult slugs per pot, 14 days; assay type: in vivo
Description: as §1, §2
The seeds were sown in earthenware pots with an internal diameter of 20 cm and a height of 18 cm, filled with 7 cm of potting soil (Trio BV, Weesp, The Netherlands) and with a top 2 cm of white quartz sand. A total of 40 seeds was placed in each pot, in a pattern of concentric circles on top of the quartz sand, the germ facing upwards. To each pot a total of 5 adult specimens of the test slug Deroceras reticulatum (grey field slug) were added. The pots were incubated at ±15° C. with a relative humidity of ±90% and light regime of ±12 hours light/12 hours dark, without artificial lighting. The pots were not irrigated overhead. In total, 4 parallel tests were performed for each test.
Following the addition of the slugs, the number of damaged seeds was counted after 2, 3, 7, 10 and 14 days. The number of plants present (germinated and not eaten or damaged by the slugs) was determined 3, 7, 10 and 14 days after the start of the test. […] The number of dead slugs was counted 2, 3, 7, 10 and 14 days after the start of the test (but not removed). Finally, on days 3, 7, 10 and 14 after the start of the test, the number fecal pellets was counted.
The data were statistically analysed by using F-tests (α=0.05) and pair-wise Student-tests.

[3] = 2 ml formulated per kg seed, 2 days after sowing
[4] = 2 ml formulated per kg seed, 3 days after sowing
[5] = 2 ml formulated per kg seed, 7 days after sowing
[6] = 2 ml formulated per kg seed, 10 days after sowing
[7] = 2 ml formulated per kg seed, 14 days after sowing
[8] = 4 ml formulated per kg seed, 2 days after sowing
[9] = 4 ml formulated per kg seed, 3 days after sowing
[10] = 4 ml formulated per kg seed, 7 days after sowing
[11] = 4 ml formulated per kg seed, 10 days after sowing
[12] = 4 ml formulated per kg seed, 14 days after sowing
[13] = 8 ml formulated per kg seed, 2 days after sowing
[14] = 8 ml formulated per kg seed, 3 days after sowing
[15] = 8 ml formulated per kg seed, 7 days after sowing
[16] = 8 ml formulated per kg seed, 10 days after sowing
[17] = 8 ml formulated per kg seed, 14 days after sowing
[18] = 23 ml formulated per kg seed, 2 days after sowing
[19] = 23 ml formulated per kg seed, 3 days after sowing
[20] = 23 ml formulated per kg seed, 7 days after sowing
[21] = 23 ml formulated per kg seed, 10 days after sowing
[22] = 23 ml formulated per kg seed, 14 days after sowing

CN1COCN(Cc2cnc(Cl)s2)/C1=N\[N+](=O)[O-] [thiamethoxam]
Percentage germinated ([1]; 2 ml formulated per kg seed): 88% | Percentage germinated ([1]; 4 ml formulated per kg seed): 78% | Percentage germinated ([1]; 8 ml formulated per kg seed): 61% | Percentage germinated ([1]; 23 ml formulated per kg seed): 73% | number of utilizable plants after 14 days ([2]; 2 ml formulated per kg seed): 0.3 | percentage of damaged seeds after 14 days ([2]; 2 ml formulated per kg seed): 97% | Mean number of damaged seeds per pot [2, 3]: 5.0 | Mean number of dead slugs per pot [2, 3]: 0 | Mean number fecal pellets per pot [2, 4]: 42 | Mean number of damaged seeds per pot [2, 4]: 18.0 | Mean number of dead slugs per pot [2, 4]: 0 | Mean number of plants present per pot [2, 4]: 7.3 | Mean number fecal pellets per pot [2, 5]: 107 | Mean number of damaged seeds per pot [2, 5]: 37.3 | Mean number of dead slugs per pot [2, 5]: 0 | Mean number of plants present per pot [2, 5]: 0.3 | Mean number fecal pellets per pot [2, 6]: 158 | Mean number of damaged seeds per pot [2, 6]: 39.0 | Mean number of dead slugs per pot [2, 6]: 0 | Mean number of plants present per pot [2, 6]: 0.3 | Mean number fecal pellets per pot [2, 7]: 144 | Mean number of damaged seeds per pot [2, 7]: 38.8 | Mean number of dead slugs per pot [2, 7]: 0 | Mean number of plants present per pot [2, 7]: 0.3 | number of utilizable plants after 14 days ([2]; 4 ml formulated per kg seed): 0 | percentage of damaged seeds after 14 days ([2]; 4 ml formulated per kg seed): 98% | Mean number of damaged seeds per pot [2, 8]: 1.8 | Mean number of dead slugs per pot [2, 8]: 0 | Mean number fecal pellets per pot [2, 9]: 30 | Mean number of damaged seeds per pot [2, 9]: 15.5 | Mean number of dead slugs per pot [2, 9]: 0 | Mean number of plants present per pot [2, 9]: 6.0 | Mean number fecal pellets per pot [2, 10]: 115 | Mean number of damaged seeds per pot [2, 10]: 37.0 | Mean number of dead slugs per pot [2, 10]: 0 | Mean number of plants present per pot [2, 10]: 0.3 | Mean number fecal pellets per pot [2, 11]: 126 | Mean number of damaged seeds per pot [2, 11]: 36.5 | Mean number of dead slugs per pot [2, 11]: 0.3 | Mean number of plants present per pot [2, 11]: 0 | Mean number fecal pellets per pot [2, 12]: 133 | Mean number of damaged seeds per pot [2, 12]: 39.0 | Mean number of dead slugs per pot [2, 12]: 0.5 | Mean number of plants present per pot [2, 12]: 0 | number of utilizable plants after 14 days ([2]; 8 ml formulated per kg seed): 3.8 | percentage of damaged seeds after 14 days ([2]; 8 ml formulated per kg seed): 84% | Mean number of damaged seeds per pot [2, 13]: 2.0 | Mean number of dead slugs per pot [2, 13]: 0 | Mean number fecal pellets per pot [2, 14]: 33 | Mean number of damaged seeds per pot [2, 14]: 10.3 | Mean number of dead slugs per pot [2, 14]: 0 | Mean number of plants present per pot [2, 14]: 5.5 | Mean number fecal pellets per pot [2, 15]: 85 | Mean number of damaged seeds per pot [2, 15]: 29.8 | Mean number of dead slugs per pot [2, 15]: 0 | Mean number of plants present per pot [2, 15]: 5.3 | Mean number fecal pellets per pot [2, 16]: 108 | Mean number of damaged seeds per pot [2, 16]: 30.8 | Mean number of dead slugs per pot [2, 16]: 0 | Mean number of plants present per pot [2, 16]: 5.5 | Mean number fecal pellets per pot [2, 17]: 112 | Mean number of damaged seeds per pot [2, 17]: 33.8 | Mean number of dead slugs per pot [2, 17]: 0.3 | Mean number of plants present per pot [2, 17]: 5.5 | number of utilizable plants after 14 days ([2]; 23 ml formulated per kg seed): 2.5 | percentage of damaged seeds after 14 days ([2]; 23 ml formulated per kg seed): 79% | Mean number of damaged seeds per pot [2, 18]: 0.5 | Mean number of dead slugs per pot [2, 18]: 0 | Mean number fecal pellets per pot [2, 19]: 20 | Mean number of damaged seeds per pot [2, 19]: 8.5 | Mean number of dead slugs per pot [2, 19]: 0.3 | Mean number of plants present per pot [2, 19]: 6.8 | Mean number fecal pellets per pot [2, 20]: 91 | Mean number of damaged seeds per pot [2, 20]: 29.8 | Mean number of dead slugs per pot [2, 20]: 0.3 | Mean number of plants present per pot [2, 20]: 6.3 | Mean number fecal pellets per pot [2, 21]: 122 | Mean number of damaged seeds per pot [2, 21]: 30.0 | Mean number of dead slugs per pot [2, 21]: 0.8 | Mean number of plants present per pot [2, 21]: 7.0 | Mean number fecal pellets per pot [2, 22]: 131 | Mean number of damaged seeds per pot [2, 22]: 31.5 | Mean number of dead slugs per pot [2, 22]: 0.8 | Mean number of plants present per pot [2, 22]: 5.8 | differences in the number of damaged seeds ([2]; Example 1, dosages tested): did not result in significant differences | protection / slug controlling effect (conclusion) ([2]; Example 1, winter wheat seed treatment, dosages tested): no sufficient protection to the plants
